{"source": "patent US5798335A", "about": "“Method for the treatment or prevention of eczema/dermatitis” (priority 1993, dated 1998)", "key": {"inflammatory lesions": {"test_system": "inflammatory lesions", "conditions": "three lesions severity 1 on back; dermal spray morning and afternoon; after three days", "experimental": "The usefulness of the method of the present invention was assessed in experiments using dogs."}, "skin conditions": {"test_system": "skin conditions", "experimental": "Following these initial trials a further trial was conducted […].\nThe trial was a double-blinded, placebo controlled trial in which the compound was compared with placebo treatment. […] The study was conducted as follows:\n1. Assessment by a veterinarian.\n2. Treatment Period A: 14 days.\n3. Assessment by a veterinarian.\n4. No treatment for seven days as a wash-out period.\n5. Assessment by a veterinarian.\n6. Treatment Period B: 14 days.\n7. Assessment by a veterinarian.\n8. No treatment for seven days.\n9. Assessment by a veterinarian."}}}
{"substance": "D-Ala-Ser-Thr-Thr-Thr-Asn-Tyr-Thr-NH2 [Peptide T]", "values": [{"measurement": "Treatment results (lesions)", "setting": "inflammatory lesions", "value": "Lesions had disappeared"}, {"measurement": "cases of mild improvement in one parameter (usually erythema)", "setting": "skin conditions; 14 day treatment period, crossover with placebo", "value": "five"}, {"measurement": "dogs with significant improvement", "setting": "skin conditions; 14 day treatment period, these dogs had atopic dermatitis", "value": "two"}, {"measurement": "dogs with no change", "setting": "skin conditions; 14 day treatment periods, crossover with placebo", "value": "ten"}]}
